# Experimental data as given in ChEMBL document CHEMBL2311286, “Design and synthesis of alkoxyindolyl-3-acetic acid analogs as peroxisome proliferator-activated receptor-γ/δ agonists” (Bioorg Med Chem Lett, 2013).
# Target: T1, Peroxisome proliferator-activated receptor alpha (Mus musculus) (UniProt P23204)
# T1 sequence (whole entry): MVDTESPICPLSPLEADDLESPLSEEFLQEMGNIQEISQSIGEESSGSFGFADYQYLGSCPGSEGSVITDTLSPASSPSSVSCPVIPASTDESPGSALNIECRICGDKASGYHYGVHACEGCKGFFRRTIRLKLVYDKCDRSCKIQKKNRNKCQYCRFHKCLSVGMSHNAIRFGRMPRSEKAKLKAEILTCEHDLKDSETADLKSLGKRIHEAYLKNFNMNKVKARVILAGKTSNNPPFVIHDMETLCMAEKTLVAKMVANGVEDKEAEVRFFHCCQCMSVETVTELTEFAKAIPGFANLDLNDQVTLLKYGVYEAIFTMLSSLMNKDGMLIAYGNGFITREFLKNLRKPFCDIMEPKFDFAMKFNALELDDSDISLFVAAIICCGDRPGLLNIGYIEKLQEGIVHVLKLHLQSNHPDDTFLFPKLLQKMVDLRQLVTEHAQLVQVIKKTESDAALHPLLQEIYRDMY
# Test: Agonist activity at mouse PPARalpha assessed as maximum activation at 10 uM by in vitro functional transactivation assay relative to 1 uM GW0746
row,Compound,%max
1,O=C(O)Cc1cn(Cc2ccccc2)c2cc(OCCCN3c4ccccc4Oc4ccccc43)ccc12,< 10%
2,O=C(O)Cc1c[nH]c2ccc(OCCCn3c4ccccc4c4ccccc43)cc12,10.1%
3,O=C(O)Cc1c[nH]c2cc(OCCCn3c4ccccc4c4ccccc43)ccc12,< 10%
4,O=C(O)Cc1cn(Cc2ccccc2)c2ccc(OCCCn3c4ccccc4c4ccccc43)cc12,< 10%

# Continued, values first:
row,%max,Compound
1,< 10%,O=C(O)Cc1cn(Cc2ccc(F)cc2)c2cc(OCCCN3c4ccccc4Oc4ccccc43)ccc12
2,< 10%,O=C(O)Cc1c[nH]c2cc(OCCCN3c4ccccc4Oc4ccccc43)ccc12
3,< 10%,O=C(O)Cc1c[nH]c2ccc(OCCCN3c4ccccc4Oc4ccccc43)cc12
4,12.8%,O=C(O)Cc1cn(Cc2ccccc2)c2ccc(OCCCN3c4ccccc4Oc4ccccc43)cc12
5,< 10%,O=C(O)Cc1cn(Cc2ccccc2)c2cc(OCCCn3c4ccccc4c4ccccc43)ccc12

# Target: T2, Peroxisome proliferator-activated receptor gamma (Mus musculus) (UniProt P37238)
# T2 sequence (whole entry): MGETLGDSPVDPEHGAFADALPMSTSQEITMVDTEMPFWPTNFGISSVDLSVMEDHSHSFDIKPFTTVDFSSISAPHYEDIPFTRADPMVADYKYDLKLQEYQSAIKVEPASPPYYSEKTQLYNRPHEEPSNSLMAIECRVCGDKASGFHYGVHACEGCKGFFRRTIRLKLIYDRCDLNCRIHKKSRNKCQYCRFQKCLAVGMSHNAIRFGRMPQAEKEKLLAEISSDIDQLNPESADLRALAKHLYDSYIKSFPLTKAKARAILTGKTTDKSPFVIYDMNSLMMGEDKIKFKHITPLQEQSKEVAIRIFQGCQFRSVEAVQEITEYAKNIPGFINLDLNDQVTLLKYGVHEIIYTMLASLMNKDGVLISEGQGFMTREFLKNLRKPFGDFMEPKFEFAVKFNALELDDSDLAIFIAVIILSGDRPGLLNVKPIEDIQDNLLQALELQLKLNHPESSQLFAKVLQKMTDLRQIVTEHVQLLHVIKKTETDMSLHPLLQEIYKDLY
# Test: Agonist activity at mouse PPARgamma assessed as maximum activation at 10 uM by in vitro functional transactivation assay relative to 1 uM rosiglitazone
row,Compound,%max
1,O=C(O)Cc1cn(Cc2ccccc2)c2cc(OCCCN3c4ccccc4Oc4ccccc43)ccc12,< 10%
2,O=C(O)Cc1c[nH]c2ccc(OCCCn3c4ccccc4c4ccccc43)cc12,< 10%
3,O=C(O)Cc1c[nH]c2cc(OCCCn3c4ccccc4c4ccccc43)ccc12,< 10%
4,O=C(O)Cc1cn(Cc2ccccc2)c2ccc(OCCCn3c4ccccc4c4ccccc43)cc12,28.7%

# The next lines start with the values.
row,%max,Compound
1,23.8%,O=C(O)Cc1cn(Cc2ccc(F)cc2)c2cc(OCCCN3c4ccccc4Oc4ccccc43)ccc12
2,< 10%,O=C(O)Cc1c[nH]c2cc(OCCCN3c4ccccc4Oc4ccccc43)ccc12
3,29.4%,O=C(O)Cc1c[nH]c2ccc(OCCCN3c4ccccc4Oc4ccccc43)cc12
4,43.1%,O=C(O)Cc1cn(Cc2ccccc2)c2ccc(OCCCN3c4ccccc4Oc4ccccc43)cc12
5,< 10%,O=C(O)Cc1cn(Cc2ccccc2)c2cc(OCCCn3c4ccccc4c4ccccc43)ccc12

# Target: T3, Peroxisome proliferator-activated receptor delta (Mus musculus) (UniProt P35396)
# T3 sequence (whole entry): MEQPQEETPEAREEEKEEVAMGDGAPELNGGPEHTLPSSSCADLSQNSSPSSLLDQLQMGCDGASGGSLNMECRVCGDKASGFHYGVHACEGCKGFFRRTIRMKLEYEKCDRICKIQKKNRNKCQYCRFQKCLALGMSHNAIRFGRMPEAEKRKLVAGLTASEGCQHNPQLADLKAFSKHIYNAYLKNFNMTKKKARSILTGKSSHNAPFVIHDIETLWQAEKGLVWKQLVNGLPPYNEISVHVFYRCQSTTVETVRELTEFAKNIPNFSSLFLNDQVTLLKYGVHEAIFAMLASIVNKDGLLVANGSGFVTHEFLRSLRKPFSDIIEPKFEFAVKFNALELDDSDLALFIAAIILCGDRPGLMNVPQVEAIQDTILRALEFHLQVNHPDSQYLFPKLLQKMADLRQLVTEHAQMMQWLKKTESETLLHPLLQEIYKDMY
# Test: Agonist activity at mouse PPARdelta assessed as maximum activation at 10 uM by in vitro functional transactivation assay relative to 0.1 uM GW0742
row,Compound,%max
1,O=C(O)Cc1cn(Cc2ccccc2)c2cc(OCCCN3c4ccccc4Oc4ccccc43)ccc12,27.3%
2,O=C(O)Cc1c[nH]c2ccc(OCCCn3c4ccccc4c4ccccc43)cc12,10.5%
3,O=C(O)Cc1c[nH]c2cc(OCCCn3c4ccccc4c4ccccc43)ccc12,< 10%
4,O=C(O)Cc1cn(Cc2ccccc2)c2ccc(OCCCn3c4ccccc4c4ccccc43)cc12,41.3%

# Now from value to compound:
row,%max,Compound
1,36.6%,O=C(O)Cc1cn(Cc2ccc(F)cc2)c2cc(OCCCN3c4ccccc4Oc4ccccc43)ccc12
2,< 10%,O=C(O)Cc1c[nH]c2cc(OCCCN3c4ccccc4Oc4ccccc43)ccc12
3,16%,O=C(O)Cc1c[nH]c2ccc(OCCCN3c4ccccc4Oc4ccccc43)cc12
4,21.7%,O=C(O)Cc1cn(Cc2ccccc2)c2ccc(OCCCN3c4ccccc4Oc4ccccc43)cc12
5,< 10%,O=C(O)Cc1cn(Cc2ccccc2)c2cc(OCCCn3c4ccccc4c4ccccc43)ccc12
